# From patent US9505781B2, “Compositions comprising thienopyrimidine and thienopyridine compounds and methods of use thereof” (The Regents of the University of Michigan, priority 2013, dated 2016)
# Target: T1, menin-MLL interaction (Homo sapiens, UniProt O00255)
# T1 sequence (O00255 1-610): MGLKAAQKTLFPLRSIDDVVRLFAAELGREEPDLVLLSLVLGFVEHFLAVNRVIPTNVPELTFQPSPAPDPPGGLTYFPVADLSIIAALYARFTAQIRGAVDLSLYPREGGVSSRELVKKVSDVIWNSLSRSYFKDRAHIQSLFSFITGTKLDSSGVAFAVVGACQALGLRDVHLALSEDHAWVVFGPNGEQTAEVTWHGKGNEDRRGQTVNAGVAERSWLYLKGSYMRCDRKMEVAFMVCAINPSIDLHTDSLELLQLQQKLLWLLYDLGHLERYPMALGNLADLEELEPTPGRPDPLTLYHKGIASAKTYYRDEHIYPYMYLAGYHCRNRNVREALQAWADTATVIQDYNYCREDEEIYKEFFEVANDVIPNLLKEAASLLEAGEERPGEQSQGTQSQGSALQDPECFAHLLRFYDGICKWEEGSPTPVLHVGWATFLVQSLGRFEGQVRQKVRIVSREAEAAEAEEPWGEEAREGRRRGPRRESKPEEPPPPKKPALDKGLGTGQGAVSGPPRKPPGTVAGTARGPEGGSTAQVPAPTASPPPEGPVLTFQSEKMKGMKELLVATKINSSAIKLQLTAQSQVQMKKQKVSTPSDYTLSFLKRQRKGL
# Test: biochemical
# Source text: Compounds that inhibit the interaction decrease the fluorescence anisotropy which is being used as a read-out for compound screening and for IC50 determination.
row,SMILES,IC50
1,N#Cc1cc2cc(CN3CCC(Nc4ncnc5sc(CC(F)(F)F)cc45)CC3)ccc2n1Cc1cscn1 [Compound 200],< 100 nM
2,N#Cc1cc2cc(CN3CCC(N(CCN4CCOCC4)c4ncnc5sc(CC(F)(F)F)cc45)CC3)ccc2[nH]1 [Compound 238],100 to 500 nM
3,COc1cc2c(cc(C#N)n2CC(N)=O)c(C)c1CN1CCC(Nc2ncnc3sc(CC(F)(F)F)cc23)CC1 [Compound 385],< 100 nM
4,N#Cc1cc2c(O)c(CN3CCC(Nc4ncnc5sc(CC(F)(F)F)cc45)CC3)ccc2[nH]1 [Compound 235],100 to 500 nM
5,"Oc1ccc(CN2CCC(Nc3ncnc4sc(CC(F)(F)F)cc34)CC2)cc1 [Compound 105, 4-((4-((6-(2,2,2-trifluoroethyl)thieno[2,3-d]pyrimidin-4-yl)amino)piperidin-1-yl)methyl)phenol]",< 100 nM
6,FC(F)(F)CCc1nnc(N2CCN(c3ncnc4sc(CC(F)(F)F)cc34)CC2)s1 [Compound 18],500 to 2000 nM
7,N#C[C@@H]1C[C@@H]1c1ccc(CN2CCC(Nc3ncnc4sc(CC(F)(F)F)cc34)CC2)cc1 [Compound 159],500 to 2000 nM
8,Cc1c(CN2CCC(Nc3ncnc4sc(CC(F)(F)F)cc34)CC2)ccc2c1cc(C#N)n2CCN1CCNC(C(F)(F)F)C1 (stereo not shown) [Compound 378],< 100 nM
9,N#Cc1cc2c(C(F)F)c(CN3CCC(Nc4ncnc5sc(CC(F)(F)F)cc45)CC3)ccc2n1CC(N)=O [Compound 310],< 100 nM
10,CCCCS(=O)(=O)Nc1ccc(CC(=O)N2CCN(c3ncnc4sc(CC(F)(F)F)cc34)CC2)cc1 [Compound 54],< 100 nM
11,FC(F)(F)Cc1cc2c(N[C@@H]3[C@@H]4CC[C@H]3CN(Cc3ccccc3)C4)ncnc2s1 [Compound 135],100 to 500 nM
12,N#Cc1cc2cc(CN3CCC(Nc4ncnc5sc(CC(F)(F)F)cc45)CC3)ccc2n1CO [Compound 183],< 100 nM
13,Cc1c(CN2CCC(Nc3ncnc4sc(CC(F)(F)F)cc34)CC2)ccc2c1cc(C#N)n2CC1CNC(=O)C1 (stereo not shown) [Compound 430],< 100 nM
14,N#Cc1cc2cc(CN3CCC(Nc4c(COCCC5CCCC5)cnc5sc(CC(F)(F)F)cc45)CC3)ccc2[nH]1 [Compound 418],500 to 2000 nM
15,Cc1c(CN2CCC(Nc3ncnc4sc(CC(F)(F)F)cc34)CC2)ccc2c1cc(C#N)n2CC1CCC(=O)NC1 (stereo not shown) [Compound 428],< 100 nM
16,FC(F)(F)Cc1cc2c(N3CCN(c4nnc(C(F)(F)F)o4)CC3)ncnc2s1 [Compound 20],500 to 2000 nM
17,N#Cc1cc2c(Cl)c(CN3CCC(Nc4ncnc5sc(CC(F)(F)F)cc45)CC3)ccc2n1CC(N)=O [Compound 225],< 100 nM
18,O=C(CCC1CCCCC1)N1CCN(c2ncnc3sc(CC(F)(F)F)cc23)CC1 [Compound 90],500 to 2000 nM
19,Cc1c(CN2CCC(Nc3ncnc4sc(CC(F)(F)F)cc34)CC2)ccc2c1cc(C#N)n2Cc1cc(Cc2ccncc2)[nH]n1 [Compound 345],< 100 nM
20,N#Cc1cc2cc(CN3CCC(Nc4ncnc5sc(CC(F)(F)F)cc45)CC3)ccc2n1CCN1CCOCC1 [Compound 192],< 100 nM
21,N#Cc1cc2cc(CN3CCC(Nc4ncnc5sc(CC(F)(F)F)cc45)CC3)ccc2n1Cc1ncon1 [Compound 198],< 100 nM
22,CC1(C)CN=C(N2CCN(c3ncnc4sc(CCc5ccccc5)cc34)CC2)S1 [Compound 35],500 to 2000 nM

row,SMILES,IC50
1,FC(F)(F)Cc1cc2c(NCC3CCN(Cc4ccc(CN5CCOCC5)cc4)CC3)ncnc2s1 [Compound 272],500 to 2000 nM
2,N#Cc1cc2cc(CN3CCC(Nc4ncnc5sc(CC(F)(F)F)cc45)CC3)ccc2n1Cc1cn[nH]c1 [Compound 202],< 100 nM
3,"N#Cc1cc2cc(CN3CCC(Nc4ncnc5sc(CC(F)(F)F)cc45)CC3)c(O)cc2[nH]1 [Compound 182, 6-hydroxy-5-((4-((6-(2,2,2-trifluoroethyl)thieno[2,3-d]pyrimidin-4-yl)amino)pipendin-1-yl)methyl)-1H-indole-2-carbonitrile]",< 100 nM
4,Cc1c(CN2CCC(Nc3ncnc4sc(CC(F)(F)F)cc34)CC2)ccc2c1cc(C#N)n2Cc1cc(O)n[nH]1 [Compound 331],< 100 nM
5,O=C(Cc1cccc(F)c1)N1CCN(c2ncnc3sc(CC(F)(F)F)cc23)CC1 [Compound 73],100 to 500 nM
6,O[C@@H]1CN(Cc2ccccc2)CC[C@H]1Nc1ncnc2sc(CC(F)(F)F)cc12 (relative stereo) [Compound 165],100 to 500 nM
7,COCC(O)Cn1c(C#N)cc2cc(CN3CCC(Nc4ncnc5sc(CC(F)(F)F)cc45)CC3)ccc21 (stereo not shown) [Compound 237],100 to 500 nM
8,CS(=O)(=O)N(CC(N)=O)c1ccc(CC(=O)N2CCN(C3=NC=NC4SC(CC(F)(F)F)=CC34)CC2)c(Cl)c1 (stereo not shown) [Compound 84],100 to 500 nM
9,Cc1c(C#N)[nH]c2ccc(CN3CCC(Nc4ncnc5sc(CC(F)(F)F)cc45)CC3)cc12 [Compound 417],100 to 500 nM
10,FC(F)(F)Cc1cc2c(NC3CCN(Cc4ccc5cc[nH]c5c4)CC3)ncnc2s1 [Compound 227],100 to 500 nM
11,Cc1c(CN2CCC(Nc3ncnc4sc(CC(F)(F)F)cc34)CC2)c(O)cc2c1cc(C#N)n2CCO [Compound 387],< 100 nM
12,N#Cc1cc2cc(CN3CC[C@@H](Nc4ncnc5sc(CC(F)(F)F)cc45)[C@@H](CO)C3)ccc2[nH]1 [Compound 164],< 100 nM
13,N#Cc1cc2cc(CN3CCC(Nc4ncnc5sc(CC(F)(F)F)cc45)CC3)ccc2n1CC(CO)OC(F)F (stereo not shown) [Compound 297],< 100 nM
14,N#Cc1cc2cc(CN3CCC(Nc4ncnc5sc(CC(F)(F)F)cc45)CC3)ccc2n1Cc1nn[nH]n1 [Compound 240],100 to 500 nM
15,Cc1c(CN2CCC(Nc3ncnc4sc(CC(F)(F)F)cc34)CC2)ccc2c1cc(C#N)n2CCN1CCNC(C(N)=O)C1 (stereo not shown) [Compound 363],< 100 nM
16,N#Cc1cc2c(C(F)F)c(CN3CCC(Nc4ncnc5sc(CC(F)(F)F)cc45)CC3)ccc2[nH]1 [Compound 305],< 100 nM
17,CNn1c(C#N)cc2cc(CN3CCC(Nc4ncnc5sc(CC(F)(F)F)cc45)CC3)ccc21 [Compound 231],100 to 500 nM
18,OCCNN(c1ncnc2sc(CC(F)(F)F)cc12)C1CCN(Cc2ccccc2)CC1 [Compound 125],100 to 500 nM
19,Cc1c(CN2CCC(Nc3ncnc4sc(CC(F)(F)F)cc34)CC2)ccc2c1cc(C#N)n2CC(O)CN1CCNCC1 (stereo not shown) [Compound 358],< 100 nM
20,O=CN1CCCC1CN[C@H]1CN(Cc2ccccc2)CC[C@@H]1Nc1ncnc2sc(CC(F)(F)F)cc12 (stereo partly shown) [Compound 170],100 to 500 nM
21,COc1ccc(CN2CCC(CNc3ncnc4sc(CC(F)(F)F)cc34)CC2)c(Cl)c1 [Compound 257],100 to 500 nM
22,CNC(=O)Cn1c(C#N)cc2cc(CN3CCC(Nc4ncnc5sc(CC(F)(F)F)cc45)CC3)ccc21 [Compound 212],< 100 nM

row,SMILES,IC50
1,COCCOCC(O)(CO)Cn1c(C#N)cc2cc(CN3CCC(Nc4ncnc5sc(CC(F)(F)F)cc45)CC3)ccc21 (stereo not shown) [Compound 314],< 100 nM
2,Cc1nnc(Cn2c(C#N)cc3c(C)c(CN4CCC(Nc5ncnc6sc(CC(F)(F)F)cc56)CC4)ccc32)o1 [Compound 334],< 100 nM
3,N#Cc1cc2cc(CN3CCC(Nc4ncnc5sc(CC(F)(F)F)cc45)CC3)ccc2n1CC(O)(CO)COCCC1CCCCC1 (stereo not shown) [Compound 413],100 to 500 nM
4,CC(=O)NCCn1c(C#N)cc2cc(CN3CCC(Nc4ncnc5sc(CC(F)(F)F)cc45)CC3)ccc21 [Compound 208],< 100 nM
5,CN(c1ccc(CC(=O)N2CCN(C3=NC=NC4SC(CC(F)(F)F)=CC34)CC2)c(Cl)c1)S(C)(=O)=O (stereo not shown) [Compound 65],< 100 nM
6,NS(=O)(=O)Cc1ccc(CC(=O)N2CCN(C3=NC=NC4SC(CC(F)(F)F)=CC34)CC2)c(Cl)c1 (stereo not shown) [Compound 286],< 100 nM
7,N#Cc1c[nH]c2cc(CN3CCC(Nc4ncnc5sc(CC(F)(F)F)cc45)CC3)ccc12 [Compound 228],100 to 500 nM
8,N#Cc1cc2c(CCO)c(CN3CCC(Nc4ncnc5sc(CC(F)(F)F)cc45)CC3)ccc2[nH]1 [Compound 296],< 100 nM
9,O=C(N1CCCC1)N1CCN(c2ncnc3sc(CC(F)(F)F)cc23)CC1 [Compound 86],500 to 2000 nM
10,N#Cc1[nH]c2ccc(CN3CCC(Nc4ncnc5sc(CC(F)(F)F)cc45)CC3)cc2c1N [Compound 233],100 to 500 nM
11,OCc1cccc2c(CN3CCC(Nc4ncnc5sc(CC(F)(F)F)cc45)CC3)c[nH]c12 [Compound 242],100 to 500 nM
12,COCCOC(CO)Cn1c(C#N)cc2cc(CN3CCC(Nc4ncnc5sc(CC(F)(F)F)cc45)CC3)ccc21 (stereo not shown) [Compound 316],< 100 nM
13,Cc1c(CN2CCC(Nc3ncnc4sc(CC(F)(F)F)cc34)CC2)c(O)cc2c1cc(C#N)n2Cc1cn[nH]c1 [Compound 388],< 100 nM
14,CCOc1c(CN2CCC(Nc3ncnc4sc(CC(F)(F)F)cc34)CC2)ccc2c1cc(C#N)n2CC(N)=O [Compound 409],100 to 500 nM
15,NS(=O)(=O)c1ccc(CN2CCC(Nc3ncnc4sc(CC(F)(F)F)cc34)CC2)c(Cl)c1 [Compound 142],500 to 2000 nM
16,N#Cc1cc2c(CO)c(CN3CCC(Nc4ncnc5sc(CC(F)(F)F)cc45)CC3)ccc2[nH]1 [Compound 290],< 100 nM
17,FC(F)(F)Cc1cc2c(N[C@H]3CCN(Cc4ccccc4)C[C@@H]3OCc3ccccc3)ccnc2s1 [Compound 174],100 to 500 nM
18,N#Cc1cc2c(C3CC3)c(CN3CCC(Nc4ncnc5sc(CC(F)(F)F)cc45)CC3)ccc2[nH]1 [Compound 293],< 100 nM
19,FC(F)(F)Cc1cc2c(NCC3CCN(Cc4ccc(Cl)cc4Cl)CC3)ncnc2s1 [Compound 254],100 to 500 nM
20,COc1cccc(CC(=O)N2CCN(c3ncnc4sc(CC(F)(F)F)cc34)CC2)c1 [Compound 95],500 to 2000 nM
